Measurements reported in patent US12516082B2, “Metal-carbohydrate complex” (ARCZONE K.K., priority 2020, dated 2026).

How the values were obtained:
Assay type in all cases: cell-based, mouse
MIN6 [1] = test: Calcein fluorescence intensity (activity of living cells), MIN6 at 5 DIV, with or without PHT; details: FIG. 5
Description: (§1) A mouse pancreatic β-cell tumorigenic (insulinoma) cell line MIN6 (Miyazaki J. et al., Endocrinology 127:126-132, 1990) was used to perform the following experiment. Here, all experiments which include an experiment where the above-described compound B (hereinafter called LGG) is administered and an experiment where the above-described compound A (hereinafter called DGG) is administered and in which about 1,000 MIN6 cells were placed in 96 wells were carried out by taking care to avoid external disturbances as much as possible.
Furthermore, the effect of LGG on cells was quantitatively analyzed in the presence or absence of PHT. Specifically, similarly to the cases of FIG. 3 described above, the fluorescence intensity of calcein, which is a fluorescent marker representing activities of living cells, was evaluated for the case (A) where LGG was not administered to MIN6 (at 5 DIV) (control experiment), the case (B) where 100 μm LGG was administered thereto for 10 minutes (LGG), and the case (C) where 100 μm LGG was administered thereto for 10 minutes after 150 μm PHT was administered in advance. In FIG. 5, the error bars indicate standard errors SE, and the numerical values in parentheses indicate the number of ROIs analyzed. […]

MIN6 [2] = test: Proportion of dead cells, MIN6 at long DIV (18 to 19 DIV) in culture; details: MIN6 at 19 DIV for LGG, 18 DIV for DGG; administered for 10 minutes; FIG. 6
Description: as §1
Specifically, LGG and DGG were administered to MIN6 at 0 to 1,000 μm at 4 DIV in culture, and after the elapse of 90 minutes, the proportion of the number of dead cells evaluated using a dead cell marker propidium iodide (PI) was measured as a function of their concentrations. […] However, the vertical axis is a value (%) normalized by the fluorescence intensity of the total number of cells assuming that the number of dead cells at a concentration of 1,000 μm is the total number of cells in each well. The broken line is an eye guide.
Furthermore, the same experiment as that of FIG. 2 was carried out for MIN6 at long DIV in culture. However, in either case, observations were carried out after DGG or LGG was administered for 10 minutes.

MIN6 [3] = test: Proportion of dead cells by propidium iodide, MIN6 at 4 DIV in culture
Description: as §1
MIN6 cells derived from mouse pancreas are a heterogeneous cell population (Yamato, E. et al., PLOS One 8: e61211, 2013). Up to about 4 to 5 DIV after the start of culture, normal cells, that is, insulin-producing β-cells of pancreatic islets of Langerhans accounted for the majority. […]
Specifically, LGG and DGG were administered to MIN6 at 0 to 1,000 μm at 4 DIV in culture, and after the elapse of 90 minutes, the proportion of the number of dead cells evaluated using a dead cell marker propidium iodide (PI) was measured as a function of their concentrations. […] However, the vertical axis is a value (%) normalized by the fluorescence intensity of the total number of cells assuming that the number of dead cells at a concentration of 1,000 μm is the total number of cells in each well. […]

MIN6 [4] = test: Optical microscope observation of cell conditions, MIN6 at 5 DIV, with or without PHT
Description: as §1
Here, a further experiment was carried out to verify whether the LGG-induced cell death clearly shown in FIG. 2 was indeed caused by the intracellular uptake of LGG. Specifically, whether the cell death is inhibited was examined by administering LGG in the presence of phloretin (hereinafter called PHT).
PHT functions as an inhibitor on various membrane transport proteins such as water channel proteins or glucose transporter proteins (Ono K. et al., Cancers 12:850, 2020). […] That is, it is estimated that, when an L-glucose derivative is applied to MIN6 cells in the presence of PHT, incorporation of LGG into “cells into which the L-glucose derivative can be incorporate” which are partially present in a heterogeneous cell population is inhibited by the effect of inhibiting a non-transporter type transport mechanism by PHT. […]

CC[P+](CC)(CC)[Au-][S]C1OC(CO)C(O)C(O)C1O [LGG, (1-thio-β-L-glucopyranoside) (S-triethylphosphine) gold (I)]
fluorescence intensity of calcein (cell activity): decrease due to LGG in presence of PHT (MIN6 [1]; 100 μm LGG for 10 minutes after 150 μm PHT in advance): significantly inhibited by PHT
fluorescence intensity of calcein (cell activity) versus control (MIN6 [1]; 100 μm LGG for 10 minutes, no PHT): significantly reduced activities of MIN6 cells
concentration dependence of the proportion of the number of dead cells (MIN6 [2]): almost matches the DGG concentration dependence
safety against normal cells relative to DGG (MIN6 [3]; MIN6 at 4 DIV (mostly normal β-cells), from 50% effective doses): approximately 10 times
concentration above which cell death evaluated using PI becomes detectable (MIN6 [3]; MIN6 at 4 DIV, 90 minutes after administration, interpolation of FIG. 2): 10 μm
cell conditions under optical microscope (MIN6 [4]; 100 μm LGG for 10 minutes after 150 μm PHT in advance, FIG. 3C, 4f-4i): cells indicating deterioration of the cell conditions are hardly recognized
cell conditions under optical microscope (MIN6 [4]; 100 μm LGG for 10 minutes, no PHT, FIG. 3B, 4e): a part of cytoplasm in some cells protrudes outside the cells
